34 compounds from BindingDB's records for doi:10.1002/ps.1855 (2010) can be followed below.

In general, IC50 refers to the concentration that gives 50% inhibition. High values mean weaker potency in that assay, low ones greater potency in that assay.

For one experiment, the target named is Cytochrome b6-f complex subunit 4 (Spinacia oleracea, UniProt P00166). Kind of experiment: Inhibition of photosynthetic electron transport protein complex in Spinacia oleracea (spinach) leaf thylakoid membranes measured at 30 seconds intervals for 10 min.
Cytochrome b6-f complex subunit 4, sequence (P00166 whole entry, one chain of several): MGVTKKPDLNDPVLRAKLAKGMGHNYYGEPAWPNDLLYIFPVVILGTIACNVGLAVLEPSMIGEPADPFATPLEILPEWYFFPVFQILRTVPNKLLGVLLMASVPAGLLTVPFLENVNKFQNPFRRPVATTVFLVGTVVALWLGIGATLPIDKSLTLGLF
With `Cc1ccc(/C=C2/C=C(Cc3ccccc3)C(=O)O2)cc1`, the IC50 was above 200 µM. `O=C1O/C(=C\c2ccc(C(F)(F)F)cc2)C=C1Cc1ccccc1` came in with an IC50 of 8.3 µM. Still for that read-out and setting: for `O=C1O/C(=C\c2ccc(O)cc2)C=C1Cc1ccccc1` the value was above 200 µM; for `O=C1O/C(=C\c2ccccc2O)C=C1Cc1ccccc1`, above 200 µM; for `O=C1O/C(=C\c2ccc([N+](=O)[O-])cc2)C=C1Cc1ccccc1`, 1.7 µM.

`N#Cc1cccc(/C=C2/C=C(Cc3ccccc3)C(=O)O2)c1` came in with an IC50 above 200 µM.

In the case of `Cc1ccccc1/C=C1/C=C(Cc2ccccc2)C(=O)O1`, the IC50 was 23.5 µM.

On to `O=C1O/C(=C\c2ccccc2F)C=C1Cc1ccccc1`, for which the IC50 is 10.1 µM. `N#Cc1ccc(/C=C2/C=C(Cc3ccccc3)C(=O)O2)cc1` registered an IC50 above 200 µM. On to `O=C1O/C(=C\c2ccccc2C(F)(F)F)C=C1Cc1ccccc1`, for which the concentration for half-maximal inhibition (IC50) came to 11.8 µM. The compound `O=C1O/C(=C\c2ccc3c(c2)OCO3)C=C1Cc1ccccc1` returned an IC50 above 200 µM. On to `O=C1O/C(=C\c2cccc(O)c2)C=C1Cc1ccccc1`, for which the half-maximal inhibitory concentration (IC50) is above 200 µM. Compound `O=C1O/C(=C\c2ccc(Cl)cc2)C=C1Cc1ccccc1` came in with a half-inhibitory concentration (IC50) above 200 µM. For `COc1ccc(/C=C2/C=C(Cc3ccccc3)C(=O)O2)cc1O`, the IC50 was above 200 µM. `O=C1O/C(=C\c2cccc(C(F)(F)F)c2)C=C1Cc1ccccc1`: half-maximal inhibition (IC50) was put at 10 µM. Regarding `COc1ccc(/C=C2/C=C(Cc3ccccc3)C(=O)O2)cc1`, the IC50 came out at 53.7 µM. For the compound `O=C1O/C(=C\c2ccc(-c3ccccc3)cc2)C=C1Cc1ccccc1`, the IC50 is above 200 µM.

In turn, `O=C1O/C(=C\c2ccccc2)C=C1Cc1ccccc1` registered an IC50 of 19.7 µM. Regarding `O=C1O/C(=C\c2ccc(Br)cc2)C=C1Cc1ccccc1`, the IC50 was above 200 µM. As for `COc1ccc(OC)c(/C=C2/C=C(Cc3ccccc3)C(=O)O2)c1`, the 50% inhibitory concentration (IC50) is 19.4 µM.

Target in a further experiment: not listed separately
Kind of experiment: Inhibition of photosynthetic electron transport protein complex in Spinacia oleracea (spinach) leaf thylakoid membranes measured at 30 seconds intervals for 10 min.
With `O=C1O/C(=C\c2cccc(Cl)c2)C=C1Cc1ccccc1`, the midpoint of inhibition, the IC50, lay at 44.7 µM. The compound `CN(C)c1cccc(/C=C2/C=C(Cc3ccccc3)C(=O)O2)c1` gave an IC50 of 13.3 µM. `O=C1O/C(=C\c2ccccc2Cl)C=C1Cc1ccccc1` returned an IC50 of 19.1 µM. `Cc1cccc(/C=C2/C=C(Cc3ccccc3)C(=O)O2)c1` yielded an IC50 of 73.8 µM. Still for that read-out and setting: for `O=C1O/C(=C\c2cccc([N+](=O)[O-])c2)C=C1Cc1ccccc1` the value was 23.1 µM. The same measure, in the same setting: for `O=C1O/C(=C\c2cccc(F)c2)C=C1Cc1ccccc1` the value was 20.5 µM; for `CCc1ccc(/C=C2/C=C(Cc3ccccc3)C(=O)O2)cc1`, 9.1 µM. Turning to `O=C1O/C(=C\c2ccccc2Br)C=C1Cc1ccccc1`, the IC50 was found to be 25.8 µM. `O=C1O/C(=C\c2cccc(Br)c2)C=C1Cc1ccccc1` gave an IC50 of 170 µM. `CN(C)c1ccc(/C=C2/C=C(Cc3ccccc3)C(=O)O2)cc1` came in with an IC50 above 200 µM. `CN(C)c1ccc(/C=C2/C=C(Cc3ccccc3)C(=O)O2)c(Cl)c1` yielded an IC50 above 200 µM. `O=C1O/C(=C\c2c(F)c(F)c(F)c(F)c2F)C=C1Cc1ccccc1`: inhibition was half-maximal at 75.2 µM (IC50). `COc1cc(OC)c(/C=C2\C=C(Cc3ccccc3)C(=O)O2)c(OC)c1` yielded a half-inhibitory concentration (IC50) of 12.7 µM. `O=C1O/C(=C\c2ccc(F)cc2)C=C1Cc1ccccc1`: the IC50 worked out at 21.9 µM.
